The assay concerns P. falciparum (synchronized ring-form parasites). In words: Assessment of parasite survival, Giemsa-stained smears. In kind it is cell-based, Plasmodium falciparum. Conditions: 50 µM siccanin; 16, 24, 32, 48 h. The method, then: Synchronized ring-form parasites (2% parasitemia) were prepared in complete medium containing 50 µM siccanin (at a fixed final DMSO concentration of 0.1% (v/v)) and distributed to 24-well plates at 1 mL/well. After incubation for 16, 24, 32, and 48 h, parasitemia was assessed under the microscope using thin blood smears stained with Giemsa.

Molecules are shown by their SMILES.

With `Cc1cc(O)c2c(c1)O[C@@]1(C)CC[C@H]3C(C)(C)CCC[C@]34CO[C@@H]2[C@H]41` [Siccanin], the “Live parasites under the microscope” value is recorded as “could not detect live parasites”.

The values are drawn from paper PMC9319939, “Siccanin Is a Dual-Target Inhibitor of Plasmodium falciparum Mitochondrial Complex II and Complex III” (Pharmaceuticals, 2022).
